The values below are quoted from earlier work in patent publication US8354121B2, “Tape preparation” (Dainippon Sumitomo Pharma Co., Ltd., priority 2006, dated 2013).

The test system of data set [1] is serotonin 5-HT2 receptor. As to conditions: compared with haloperidol.
For data set [2], the target named is dopamine D2 receptor (Homo sapiens, UniProt P14416). The conditions noted are these: compared with haloperidol.
Chain of dopamine D2 receptor (P14416 whole entry, species assumed): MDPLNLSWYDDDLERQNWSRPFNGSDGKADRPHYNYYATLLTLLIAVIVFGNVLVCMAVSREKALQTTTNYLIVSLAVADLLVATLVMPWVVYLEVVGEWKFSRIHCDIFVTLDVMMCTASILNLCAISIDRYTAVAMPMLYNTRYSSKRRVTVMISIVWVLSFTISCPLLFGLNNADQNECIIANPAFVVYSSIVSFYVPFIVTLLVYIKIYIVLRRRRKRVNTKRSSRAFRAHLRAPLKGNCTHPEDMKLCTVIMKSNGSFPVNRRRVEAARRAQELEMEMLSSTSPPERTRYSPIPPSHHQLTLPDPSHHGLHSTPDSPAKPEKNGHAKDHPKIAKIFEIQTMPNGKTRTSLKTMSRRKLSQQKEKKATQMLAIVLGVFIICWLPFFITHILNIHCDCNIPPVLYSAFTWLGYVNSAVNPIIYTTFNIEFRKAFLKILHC

As for `CCN1CCN(c2cc(-c3ccc(F)cc3)c3c(n2)CCCCCC3)CC1` [Compound A, 2-(4-ethyl-1-piperazinyl)-4-(4-fluorophenyl)-5,6,7,8,9,10-hexahydrocycloocta[b]pyridine], the “affinity for serotonin 5-HT2 receptor” value in data set [1] is “higher affinity”. For the same compound, the “affinity for dopamine D2 receptor” value in data set [2] is reported as “higher affinity”.
